# Like-named read-outs stand apart in the source and are kept apart here.
# Tests used:
# MCF-7 cells [1] = assay: MTS in vitro cytotoxicity / cell viability assay on MCF-7 breast cancer cells; format: cell-based; conditions: for IC50: Homo sapiens; for inhibition of MCF7 cells at low concentration / proliferative activity of cancer cells at low concentration: concentrations of less than or equal to 10 μM
# Description: Compound A was compared with genistein to test the cell viability of MCF-7 cells. […] The cell viability was tested using the MTS in vitro cytotoxicity assay. This is considered the most convenient assay because of its ease of use, accuracy and rapid indication of toxicity (Malich G et al., Toxicology 124(3): 179-92 (1997).
# [2] = system: MDA-MB-468 (estrogen negative) cancer cells; assay: Inhibition of MDA-MB-468 (estrogen negative) breast cancer cells; format: cell-based; conditions: for IC50, MDA-MB-468 cells / IC50: day 6; for IC50: Homo sapiens, MDA-MB-468, 144 h
# LNCap cells = assay: IC50 against LNCap cells; format: cell-based; conditions: Homo sapiens
# PC3 cells = assay: IC50 against PC3 cells; format: cell-based; conditions: Homo sapiens, PC-3
# MCF-7 cells [3] = conditions: cited from earlier work; for effect on growth of MCF-7 cells at low concentration: at <10 μM
# [4] = day 6 of incubation, Examples 10 and 11
# [5] = MCF7, Example 8 table, read-out: IC50 against MCF-7 cells
# [6] = MCF7, 24 h, 1 day of incubation, Example 8, read-out: IC50, cell viability of MCF-7 cells
# [7] = MCF7, 48 h, 2 days of incubation, Example 8, read-out: IC50, cell viability of MCF-7 cells
# [8] = MCF7, 72 h, 3 days of incubation, Example 8, read-out: IC50, cell viability of MCF-7 cells
# [9] = MCF7, 144 h, day 6 of incubation, Examples 10 and 11, read-out: IC50, MCF-7 estrogen positive breast cancer cells
# [10] = MCF7, 8 hours incubation, Example 9, read-out: IC50, MCF7 cells
# [11] = MCF7, Example 9, incubation time not given, read-out: IC50, inhibitory effect on MCF7 cells (no significant effect)
structure (smiles),measurement,setting,value
CC(C(=O)c1c(O)cc(O)cc1O)c1ccc(O)cc1 (centres unmarked) [6-hydroxy-O-Dma],"IC50, MCF-7 estrogen positive breast cancer cells",MCF-7 cells [1]; [4],33 µg/mL
same,"IC50, MDA-MB-468 cells",[2],43 µg/mL
"CC(C(=O)c1ccc(O)cc1O)c1ccc(O)c(O)c1 (centres unmarked) [(V), 1-(2,4,dihydroxyphenyl)-2-(3,4-dihydroxyphenyl)-propan-1-one]",IC50,MCF-7 cells [1]; [5],10 to 20 µg/mL
"C=C(C(=O)c1ccc(O)cc1O)c1ccc(O)c(O)c1 [(VI), 1-(2,4-di-hydroxyphenyl)-2-(3,4-dihydroxyphenyl)-prop-2-cn-1-one]",IC50,LNCap cells,7 µg/mL
same,IC50,MCF-7 cells [1]; [5],3.2 µg/mL
same,IC50,PC3 cells,6.2 µg/mL
"O=C1c2ccc(O)cc2OCC1c1ccc(O)c(O)c1 (centres unmarked) [(VII), 3′-hydroxy-dihydrodaidzen]",IC50,MCF-7 cells [1]; [5],~28 µg/mL
"C=C(C(=O)c1cc(O)c(O)cc1O)c1ccc(O)cc1 [(VIII), 1-(2,4,5-trihydroxyphenyl)-2-(4-hydroxyphenyl)-prop-2-cn-1-one]",IC50,MCF-7 cells [1]; [5],< 8 µg/mL
"CC(C(=O)c1cc(O)c(O)cc1O)c1ccc(O)cc1 (centres unmarked) [Compound A, 1-(2,4,5-trihydroxyphenyl)-2-(4-hydroxyphenyl)-propan-1-one]",effect on growth of MCF-7 cells at low concentration,"MCF-7 cells [1]; 2.5 micrograms/ml, within 8 hours of incubation and at days 1 and 2",inhibited the growth
same,IC50,MCF-7 cells [1]; [6],6 µg/mL
same,IC50,MCF-7 cells [1]; [7],6.5 µg/mL
same,IC50,MCF-7 cells [1]; [8],7 µg/mL
same,IC50,MCF-7 cells [1]; [9],2.1 µg/mL
same,IC50,MCF-7 cells [1]; [10],6 µg/mL
same,IC50,MCF-7 cells [1]; [5],6 to 10 µg/mL
same,IC50,"MCF-7 cells [1]; MCF7, incubations at 24, 48, 72 and 144 hours, Example 9, read-out: IC50, MCF7 cells",4 to 7 µg/mL
same,"inhibition of MCF7 breast cancer cells compared with genistein, daidzein, precursors and metabolites","MCF-7 cells [1]; concentrations of 15-40 μg/ml, Example 9",significant inhibition
same,inhibition of MCF7 cells at low concentration,MCF-7 cells [1]; Example 9,no significant inhibition
same,proliferative activity of cancer cells at low concentration,"MCF-7 cells [1]; MCF7, Example 9",no proliferative activity
same,IC50,[2],6.8 µg/mL
same,times more inhibitive than O-Dma and 6-hydroxy-O-Dma,"[2]; MDA-MB-468, day 6",3-7 times
"O=c1c(-c2ccc(O)cc2)coc2cc(O)c(O)cc12 [Factor 2, 6,7,4′-trihydroxyisoflavone]",IC50,MCF-7 cells [1]; [9],12 µg/mL
"CC(C(=O)c1ccc(O)cc1O)c1ccc(O)cc1 (centres unmarked) [O-Dma, O-desmethylangolensin]","IC50, MCF-7 estrogen positive breast cancer cells",MCF-7 cells [1]; [4],38 µg/mL
same,"IC50, MDA-MB-468 cells",[2],20 µg/mL
COc1ccc(-c2coc3cc(O)cc(O)c3c2=O)cc1 [biochanin A],effect on growth of MCF-7 cells at low concentration,MCF-7 cells [3],can enhance the growth
same,IC50,"MCF-7 cells [1]; MCF7, 72 and 144 hours incubation, Example 9, read-out: IC50, inhibitory effect on MCF7 cells",18 to 23 µg/mL
O=c1c(-c2ccc(O)cc2)coc2cc(O)ccc12 [daidzein],effect on growth of MCF-7 cells at low concentration,MCF-7 cells [3],can enhance the growth
same,IC50,MCF-7 cells [1]; [11],≥ 36 µg/mL
Oc1ccc([C@H]2COc3cc(O)ccc3C2)cc1 [equol],effect on growth of MCF-7 cells at low concentration,MCF-7 cells [3],can enhance the growth
same,IC50,MCF-7 cells [1]; [11],≥ 36 µg/mL
COc1ccc(-c2coc3cc(O)ccc3c2=O)cc1 [formononetin],IC50,MCF-7 cells [1]; [11],≥ 36 µg/mL
O=c1c(-c2ccc(O)cc2)coc2cc(O)cc(O)c12 [genistein],effect on growth of MCF-7 cells at low concentration,MCF-7 cells [3],can enhance the growth
same,IC50,"MCF-7 cells [3]; induced by 1-(o-chlorophenyl)-1-(p-chlorophenyl)-2,2,2-trichloroethane, 5-octylphenol, 4-nonylphenol, read-out: IC50, inhibition of proliferation of MCF-7 cells induced by environmental chemicals",25 to 33 µM
same,IC50,MCF-7 cells [1]; [6],32 µg/mL
same,IC50,MCF-7 cells [1]; [7],22 µg/mL
same,IC50,MCF-7 cells [1]; [8],15 µg/mL
same,IC50,"MCF-7 cells [1]; MCF7, 144 h, 6 days of incubation, Example 8, read-out: IC50, cell viability of MCF-7 cells",18 µg/mL
same,IC50,MCF-7 cells [1]; [10],> 40 µg/mL
same,IC50,"MCF-7 cells [1]; MCF7, 48 hours incubation, Example 9, read-out: IC50, MCF7 cells",38 µg/mL
same,IC50,"MCF-7 cells [1]; MCF7, 144 hours incubation, Example 9, read-out: IC50, MCF7 cells",15 µg/mL
same,effect on growth of MCF-7 cancer cells at low concentration,"MCF-7 cells [1]; concentrations <10 μM, Example 8",enhance rather than inhibit the growth
same,inhibition of MCF7 cells at low concentration,MCF-7 cells [1]; Example 9,no significant inhibition
same,proliferative activity of cancer cells at low concentration,"MCF-7 cells [1]; MCF7, Example 9",some proliferative activity
same,IC50,[2],8.8 µg/mL

# Source: patent publication US7799955B2, “Isoflavone metabolites” (priority 1999, dated 2010)
